We go through ten molecules from US5102873A (priority 1989, dated 1992).

A short description of series [1]: Cytotoxicity of test compound to Vero host cells (minimum toxic concentration). Conditions: monkey, MTC (minimum toxic concentration), footnote: lowest concentration giving 50% reduction in percent survival of viable host cells.
Series [2] deals with vaccinia virus. Nature of the series: microbe, parasite or virus in culture. Conditions: for IC50: Orthopoxvirus vaccinia, Vero, read-out: ID50 (inhibitory dose 50; 50% reduction in virus replication), vaccinia virus in Vero cells, called MIC50; for TI (therapeutic index, MTC/ID50) / Virus Rating (VR): Vero cells; for TI (therapeutic index, MTC/ID50): TI>50 indicates a useful compound; for Virus Rating (VR): VR >=1.0 significant, 0.5-0.9 marginal, <0.5 inactive, repeat lines are repeat tests. It counts as cell-based.

Several values for one entry are separate records, joined by “and”; a condition that tells them apart may be missing. Equal entries are not always repeated. Bounds are passed on as bounds.

In turn, `Cc1ccc(COn2cnc3c(ncn3[C@@H]3O[C@H](CO)[C@@H](O)[C@H]3O)c2=N)c(C)c1.[O-][Cl+3]([O-])([O-])O` [Compound 2cc, 1-(2,4-Dimethylbenzyloxy)adenosine, perchloric acid salt] returned an MCC in series [1] of 320 µg/mL. In series [2], the IC50 was 0.08 µg/mL; the “TI (therapeutic index, MTC/ID50)” value is 4110 and 3890; the “Virus Rating (VR)” value is listed as 2.9.
With `N=c1c2ncn([C@@H]3O[C@H](CO)[C@@H](O)[C@H]3O)c2ncn1OCc1ccccc1.[O-][Cl+3]([O-])([O-])O` [Compound 2dd, 1-Benzyloxyadenosine, perchloric acid salt], the MCC in series [1] turned out to be 320 µg/mL. Besides, in series [2], the IC50 was found to be 1.77 µg/mL; the “TI (therapeutic index, MTC/ID50)” value is reported as 180; the “Virus Rating (VR)” value is given as more than 2.0.
On to `COc1cccc(COn2cnc3c(ncn3[C@@H]3O[C@H](CO)[C@@H](O)[C@H]3O)c2=N)c1.[O-][Cl+3]([O-])([O-])O` [Compound 2e, 1-(3-Methoxybenzyloxy)adenosine, perchloric acid salt], for which the MCC in series [1] was more than 320 µg/mL. Besides, in series [2], the IC50 was 0.2 µg/mL; the “TI (therapeutic index, MTC/ID50)” value is 1609 and 1075.
Molecule `N=c1c2ncn([C@@H]3O[C@H](CO)[C@@H](O)[C@H]3O)c2ncn1OCc1cc(F)cc(F)c1.[O-][Cl+3]([O-])([O-])O` [Compound 2ff, 1-(3,5-Difluorobenzyloxy)adenosine, perchloric acid salt] came in with an MCC in series [1] of more than 320 µg/mL. Moreover, in series [2], the IC50 was 1.55 µg/mL; the “TI (therapeutic index, MTC/ID50)” value was 205 and 175; the “Virus Rating (VR)” value is more than 2.0.
In series [1], `N=c1c2ncn([C@@H]3O[C@H](CO)[C@@H](O)[C@H]3O)c2ncn1OCc1ccccc1F.[O-][Cl+3]([O-])([O-])O` [Compound 2g, 1-(2-Fluorobenzyloxy)adenosine, perchloric acid salt] came in with an MCC of more than 320 µg/mL. In addition, in series [2], the IC50 was found to be 4.97 µg/mL; the “TI (therapeutic index, MTC/ID50)” value was 64 and 34.
Regarding `N=c1c2ncn([C@@H]3O[C@H](CO)[C@@H](O)[C@H]3O)c2ncn1OCc1cc(F)ccc1F.[O-][Cl+3]([O-])([O-])O` [Compound 2gg, 1-(2,5-Difluorobenzyloxy)adenosine, perchloric acid salt], the MCC in series [1] is more than 320 µg/mL. Besides, in series [2], the IC50 came out at 1.77 µg/mL; the “TI (therapeutic index, MTC/ID50)” value is 180 and 115.
Turning to `N=c1c2ncn([C@@H]3O[C@H](CO)[C@@H](O)[C@H]3O)c2ncn1OCc1cccc(F)c1.[O-][Cl+3]([O-])([O-])O` [Compound 2h, 1-(3-Fluorobenzyloxy)adenosine, perchloric acid salt], in series [1], the MCC was more than 320 µg/mL. Moreover, in series [2], the IC50 was determined as 0.98 µg/mL; the “TI (therapeutic index, MTC/ID50)” value was 325 and 285.
The molecule `N=c1c2ncn([C@@H]3O[C@H](CO)[C@@H](O)[C@H]3O)c2ncn1OCc1ccc(F)cc1.[O-][Cl+3]([O-])([O-])O` [Compound 2i, 1-(4-Fluorobenzyloxy)adenosine, perchloric acid salt] returned an MCC in series [1] of more than 320 µg/mL. In series [2], the IC50 was found to be 2.41 µg/mL; the “TI (therapeutic index, MTC/ID50)” value is 133 and 160.
In series [1], `N=c1c2ncn([C@@H]3O[C@H](CO)[C@@H](O)[C@H]3O)c2ncn1OCc1ccc(F)cc1F.[O-][Cl+3]([O-])([O-])O` [Compound 2j, 1-(2,4-Difluorobenzyloxy)adenosine, perchloric acid salt] returned an MCC of more than 320 µg/mL. For the same molecule, in series [2], the IC50 stood at 0.31 µg/mL; the “TI (therapeutic index, MTC/ID50)” value is recorded as 1029; the “Virus Rating (VR)” value is recorded as more than 2.4.
As to `N=c1c2ncn([C@@H]3O[C@H](CO)[C@@H](O)[C@H]3O)c2ncn1OCc1ccc(F)c(F)c1.[O-][Cl+3]([O-])([O-])O` [Compound 2k, 1-(3,4-Difluorobenzyloxy)adenosine, perchloric acid salt], in series [1], the MCC is more than 320 µg/mL. For the same molecule, in series [2], the IC50 came to 0.48 µg/mL; the “TI (therapeutic index, MTC/ID50)” value was 671 and 434; the “Virus Rating (VR)” value was more than 2.3.
